Data on twelve molecules can be found in ChEMBL document CHEMBL1201862, “PubChem BioAssay data set” (2004).

Test systems include Malme-3M; UACC-62; NCI-H460; NCI/ADR-RES; LOX IMVI; UO-31; HT-29; SR; NCI-H23; IGROV-1; SNB-19; HCC 2998; T47D; SNB-75; OVCAR-8.
Experiment in all cases: NCI tumour cell line growth inhibition, 48 h

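Compound exposure: 48 hours, 5 concentrations, 96-well plates. At the GI50, growth is halved.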 Activity calls are given as the source filed them. Rule as the data show it: active = GI50 up to about 1.1 µM and inactive = higher.

Take `N#Cc1c(N)sc2c1-c1ccccc1OC2`: the GI50 in the assay on Malme-3M was 41.2 µM (inactive); in the assay on UACC-62, 53.7 µM (inactive); with NCI-H460, 36.4 µM (inactive); in the assay on NCI/ADR-RES, 32.2 µM (inactive); in the assay with LOX IMVI it was 38.1 µM (inactive); in the assay on UO-31 it was 25.2 µM (inactive). The GI50 is 26.2 µM (inactive) in the assay with HT-29; 19.1 µM (inactive) in the assay on SR; 45.4 µM (inactive) in the assay with NCI-H23; 49.7 µM (inactive) in the assay with IGROV-1; 30.5 µM (inactive) in the assay with SNB-19; 26 µM (inactive) in the assay on HCC 2998.
Consider `Cc1c(-c2ccccc2)[nH]c2cc(Cl)ccc2c1=O`, for which the GI50 in the assay on Malme-3M was 65 µM (inactive); in the assay with T47D, > 100 µM (inactive); with UACC-62 it was 54.6 µM (inactive); in the assay with NCI-H460, 0.631 µM (active); in the assay with LOX IMVI, 89.5 µM (inactive); in the assay on UO-31, 0.0135 µM (active). Also, the GI50 is > 100 µM (inactive) in the assay with HT-29; 18.7 µM (inactive) with SR; 36.3 µM (inactive) in the assay with NCI-H23; 52.8 µM (inactive) with SNB-19; > 100 µM (inactive) in the assay on HCC 2998.
Consider `Cc1nc2ccccc2n1Cc1nnc2n1N=C(c1ccccc1)CS2`, for which the GI50 in the assay on Malme-3M was 49.9 µM (inactive); in the assay with T47D, 10.6 µM (inactive); in the assay on UACC-62, 23.9 µM (inactive); in the assay on NCI-H460, 33.5 µM (inactive); in the assay on NCI/ADR-RES, 64.1 µM (inactive); in the assay on UO-31, 38.2 µM (inactive). Also, the GI50 was 30.5 µM (inactive) with HT-29; 18 µM (inactive) in the assay on SNB-75; 33.2 µM (inactive) with NCI-H23; 2.4 µM (inactive) with IGROV-1; 32.1 µM (inactive) with SNB-19; 21.4 µM (inactive) in the assay with HCC 2998.
In the case of `CCOC(=O)/C=C/c1nc(C#N)c(N)o1`, the GI50 with UACC-62 was > 100 µM (inactive); in the assay with LOX IMVI, > 100 µM (inactive); with UO-31 it was 53.6 µM (inactive); in the assay with HT-29 it was > 100 µM (inactive); in the assay on SNB-75, > 100 µM (inactive); with OVCAR-8, > 100 µM (inactive). Moreover, the GI50 with SR, in the assay with IGROV-1 and in the assay on SNB-19 was > 100 µM (inactive) throughout.
Turning to `COc1ccc(C2C=C(c3ccc(C)cc3)N(c3ccc(OC)cc3[N+](=O)[O-])C3C(=O)OC(=O)C23)c(OC)c1` (configuration not stated), the GI50 is 11.1 µM (inactive) with Malme-3M; 49.4 µM (inactive) in the assay with UACC-62; 71.3 µM (inactive) with NCI-H460; 25.5 µM (inactive) with LOX IMVI; 24.3 µM (inactive) in the assay with HT-29; 20.2 µM (inactive) in the assay with SNB-75. Also, the GI50 in the assay on OVCAR-8 was 16.2 µM (inactive); in the assay on SR, 20.1 µM (inactive); in the assay with NCI-H23, 52.4 µM (inactive); with IGROV-1 it was 15.2 µM (inactive); in the assay with SNB-19 it was 47 µM (inactive); with HCC 2998, 29.9 µM (inactive).
`Cc1cc(C)n(C(=O)C(C)Sc2nnc(SC(C)C(=O)n3nc(C)cc3C)s2)n1` (configuration not stated): the GI50 with Malme-3M, with UACC-62, with NCI-H460, with NCI/ADR-RES, in the assay with LOX IMVI and in the assay with UO-31 was > 100 µM (inactive) in each case. For the same molecule, the GI50 with HT-29, in the assay on SNB-75, in the assay with OVCAR-8, with SR, in the assay on NCI-H23 and with IGROV-1 was > 100 µM (inactive) each time. For the same molecule, the GI50 in the assay with SNB-19 and in the assay with HCC 2998 was > 100 µM (inactive) in each case.
For `COCC1OC(OC2C3=C(C(C)C)CCC3(C)/C=C3\C(CCC3(O)COC)C(C)C2O)C(O)C2OC3OC12OC3(C)C1CO1` (configuration not stated), the GI50 in the assay with Malme-3M was 34.7 µM (inactive); in the assay with T47D, 29.4 µM (inactive); in the assay with UACC-62, 21.9 µM (inactive); with NCI-H460 it was 32.7 µM (inactive); with LOX IMVI, 22.5 µM (inactive); in the assay with UO-31, 16.4 µM (inactive). Also, the GI50 in the assay with HT-29 is 34.8 µM (inactive); in the assay with SNB-75, 21.7 µM (inactive); in the assay with OVCAR-8, 48 µM (inactive); in the assay with SR, 41.8 µM (inactive); with NCI-H23 it was 90.2 µM (inactive); in the assay on IGROV-1, 37.8 µM (inactive). The results for the GI50 with SNB-19 and in the assay with HCC 2998 were 28.1 µM (inactive) and 42.2 µM (inactive), respectively.
Consider `CCOC(=O)Cn1nnc2cc(Nc3c(C)[n+]([O-])c4cc(F)c(OCC)cc4[n+]3[O-])ccc21`, for which the GI50 in the assay with T47D, in the assay on NCI-H460, in the assay with NCI/ADR-RES, in the assay on LOX IMVI, with UO-31 and in the assay on HT-29 was > 100 µM (inactive) throughout. The GI50 was > 100 µM (inactive) in the assay on OVCAR-8, > 100 µM (inactive) in the assay with NCI-H23 and 96.2 µM (inactive) in the assay on IGROV-1.
Regarding `CC(=O)/C=C/C1=C(C)CCCC1(C)CC(C)C` (configuration not stated), the GI50 was 30.6 µM (inactive) with Malme-3M; 15.3 µM (inactive) in the assay on T47D; 22.4 µM (inactive) in the assay with UACC-62; 29.1 µM (inactive) with NCI-H460; 18.6 µM (inactive) with LOX IMVI; 36.9 µM (inactive) with UO-31. The GI50 was 28 µM (inactive) in the assay on HT-29; 21.6 µM (inactive) in the assay with SNB-75; 31.3 µM (inactive) in the assay with OVCAR-8; 16 µM (inactive) with SR; 24.8 µM (inactive) with NCI-H23; 29.3 µM (inactive) with IGROV-1. The GI50 with SNB-19 is 27.4 µM (inactive); in the assay with HCC 2998 it was 17.6 µM (inactive).
As for `N#C/C(=C\c1cc(F)cc(F)c1)c1ccccn1`, the GI50 is 25.9 µM (inactive) with Malme-3M; 45.1 µM (inactive) in the assay with UACC-62; 22.7 µM (inactive) with NCI-H460; 23.6 µM (inactive) with NCI/ADR-RES; 34.7 µM (inactive) with UO-31; 34.4 µM (inactive) with HT-29. For the same molecule, the GI50 is 16.1 µM (inactive) in the assay on SNB-75; 16 µM (inactive) with OVCAR-8; 24 µM (inactive) with SR; 26.1 µM (inactive) in the assay on NCI-H23; 54.8 µM (inactive) in the assay with IGROV-1; 45.6 µM (inactive) with SNB-19. Besides, the GI50 in the assay on HCC 2998 is 21.1 µM (inactive).
As for `NS(=O)(=O)c1ccc(-n2c(-c3cccs3)nc3ccc(I)cc3c2=O)cc1`, the GI50 in the assay with Malme-3M was 18.3 µM (inactive); in the assay with UACC-62, 17.9 µM (inactive); in the assay on NCI-H460, 25.5 µM (inactive); in the assay with NCI/ADR-RES, 29.1 µM (inactive); in the assay on LOX IMVI, 18.4 µM (inactive); in the assay on UO-31, 20 µM (inactive). Further, the GI50 in the assay on HT-29 was 31.7 µM (inactive); with SNB-75, 37.7 µM (inactive); in the assay on OVCAR-8 it was 31.4 µM (inactive); in the assay on SR, 35 µM (inactive); in the assay on NCI-H23, 25.8 µM (inactive); in the assay with IGROV-1, 21.7 µM (inactive). The GI50 is 40.4 µM (inactive) with SNB-19 and 22.1 µM (inactive) with HCC 2998.
As to `O=C1c2cccnc2-c2nccc3c2c1nc1ccccc13` [ASCIDIDEMIN], the GI50 in the assay on Malme-3M is 0.231 µM (active); in the assay on T47D it was 0.29 µM (active); in the assay with UACC-62 it was 0.224 µM (active); in the assay on NCI-H460, 0.0879 µM (active); in the assay on NCI/ADR-RES, 0.0551 µM (active); in the assay with LOX IMVI, 0.0512 µM (active). Moreover, the GI50 is 0.143 µM (active) in the assay on UO-31; 1.19 µM (inactive) with HT-29; 0.389 µM (active) in the assay with SNB-75; 0.0505 µM (active) in the assay with OVCAR-8; 0.172 µM (active) in the assay on NCI-H23; 0.31 µM (active) in the assay on IGROV-1. Further, in the assay on SNB-19, the GI50 is 0.281 µM (active).
